Data on 15 compounds can be found in US9708318B2, “Bicyclic heterocycles as FGFR4 inhibitors” (Incyte Corporation, priority 2015, dated 2017).

Where two headings read alike, the source gives them in different places.

One experiment has as its target FGFR2 (Homo sapiens (Human), UniProt P21802). Put plainly: FGFR Enzymatic Assay (FRET peptide phosphorylation), FGFR2. The class given is biochemical. The procedure:
(§1) The inhibitor potency of the exemplified compounds was measured in an enzyme assay that measures peptide phosphorylation using FRET measurements to detect product formation. Inhibitors were serially diluted in DMSO and a volume of 0.5 μL was transferred to the wells of a 384-well plate.
(§2) The enzymes were purchased from Millipore or Invitrogen.
(§3) GraphPad prism3 was used to analyze the data.

Another experiment addresses FGFR3 enzyme (Homo sapiens (Human), UniProt P22607). Description: FGFR Enzymatic Assay (FRET peptide phosphorylation), FGFR3. The class given is biochemical. Conditions: for IC50: read-out: FGFR3 IC50; for FGFR1/FGFR3 IC50 ratio / FGFR4/FGFR3 IC50 ratio: FGFR3 selectivity. As for the experimental part: as §1, §3
A further experiment addresses FGFR4 (Homo sapiens (Human), UniProt P22455). Description: FGFR Enzymatic Assay (FRET peptide phosphorylation), FGFR4. The class given is biochemical. Particulars: for FGFR1/FGFR4 IC50 ratio / FGFR2/FGFR4 IC50 ratio / FGFR3/FGFR4 IC50 ratio: FGFR4 selectivity. As for the experimental part: as §1, §2, §3
The target in a further experiment is FGFR1 (Homo sapiens (Human), UniProt P11362). Put plainly: FGFR Enzymatic Assay (FRET peptide phosphorylation), FGFR1.
FGFR1, sequence (P11362 22-822): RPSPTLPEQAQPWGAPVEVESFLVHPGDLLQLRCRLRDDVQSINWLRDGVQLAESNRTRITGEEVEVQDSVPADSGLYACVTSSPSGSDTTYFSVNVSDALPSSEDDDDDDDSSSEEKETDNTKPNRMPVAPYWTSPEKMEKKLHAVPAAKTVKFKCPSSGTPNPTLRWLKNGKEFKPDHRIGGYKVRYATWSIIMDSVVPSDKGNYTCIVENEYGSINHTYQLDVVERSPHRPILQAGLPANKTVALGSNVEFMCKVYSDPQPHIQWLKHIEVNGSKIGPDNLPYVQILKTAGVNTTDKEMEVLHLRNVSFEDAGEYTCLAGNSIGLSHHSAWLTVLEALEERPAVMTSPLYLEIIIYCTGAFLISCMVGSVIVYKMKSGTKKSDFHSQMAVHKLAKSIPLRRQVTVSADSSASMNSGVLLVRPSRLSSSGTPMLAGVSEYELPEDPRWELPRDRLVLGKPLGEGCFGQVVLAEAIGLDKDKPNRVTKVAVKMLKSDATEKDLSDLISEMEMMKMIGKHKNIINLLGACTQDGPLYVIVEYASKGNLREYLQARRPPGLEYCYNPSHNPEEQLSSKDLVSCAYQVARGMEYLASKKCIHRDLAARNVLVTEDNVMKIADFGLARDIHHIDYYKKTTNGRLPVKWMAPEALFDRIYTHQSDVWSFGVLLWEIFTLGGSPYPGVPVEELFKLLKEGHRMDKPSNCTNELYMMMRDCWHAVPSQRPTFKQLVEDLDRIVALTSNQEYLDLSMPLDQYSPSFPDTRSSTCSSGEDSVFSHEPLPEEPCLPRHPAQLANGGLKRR
Where [1] appears, read: pre-incubated for 5 to 10 minutes.
Where [2] appears, read: FGFR1 IC50 (nM), pre-incubated for 5 to 10 minutes.
Setting [3] is: read-out: FGFR1 IC50, pre-incubated for 4 hours.
Setting [4] is: FGFR1 IC50 (nM), pre-incubated for 4 hours.

FGFR2, sequence (P21802 22-821): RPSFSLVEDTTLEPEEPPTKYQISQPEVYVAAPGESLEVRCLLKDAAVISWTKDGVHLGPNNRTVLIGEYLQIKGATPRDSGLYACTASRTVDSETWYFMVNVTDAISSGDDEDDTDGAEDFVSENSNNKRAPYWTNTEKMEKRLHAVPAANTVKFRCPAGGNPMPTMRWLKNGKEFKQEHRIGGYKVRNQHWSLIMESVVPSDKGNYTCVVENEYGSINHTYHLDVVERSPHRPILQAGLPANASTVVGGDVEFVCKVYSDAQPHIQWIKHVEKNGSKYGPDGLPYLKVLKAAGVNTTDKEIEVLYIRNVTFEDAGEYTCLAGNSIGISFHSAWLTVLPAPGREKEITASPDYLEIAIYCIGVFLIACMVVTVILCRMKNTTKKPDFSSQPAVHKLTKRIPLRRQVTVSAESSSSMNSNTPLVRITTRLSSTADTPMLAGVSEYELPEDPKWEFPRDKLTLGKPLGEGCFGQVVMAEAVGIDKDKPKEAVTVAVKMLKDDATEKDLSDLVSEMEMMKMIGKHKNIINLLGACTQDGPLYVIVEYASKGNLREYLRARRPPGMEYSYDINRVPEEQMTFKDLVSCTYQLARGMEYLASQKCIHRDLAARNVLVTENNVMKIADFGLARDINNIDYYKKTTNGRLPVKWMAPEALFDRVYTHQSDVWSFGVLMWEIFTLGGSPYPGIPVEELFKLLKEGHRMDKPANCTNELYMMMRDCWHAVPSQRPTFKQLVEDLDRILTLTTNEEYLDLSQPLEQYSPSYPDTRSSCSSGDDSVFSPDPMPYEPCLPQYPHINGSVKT
FGFR4, sequence (P22455 22-802): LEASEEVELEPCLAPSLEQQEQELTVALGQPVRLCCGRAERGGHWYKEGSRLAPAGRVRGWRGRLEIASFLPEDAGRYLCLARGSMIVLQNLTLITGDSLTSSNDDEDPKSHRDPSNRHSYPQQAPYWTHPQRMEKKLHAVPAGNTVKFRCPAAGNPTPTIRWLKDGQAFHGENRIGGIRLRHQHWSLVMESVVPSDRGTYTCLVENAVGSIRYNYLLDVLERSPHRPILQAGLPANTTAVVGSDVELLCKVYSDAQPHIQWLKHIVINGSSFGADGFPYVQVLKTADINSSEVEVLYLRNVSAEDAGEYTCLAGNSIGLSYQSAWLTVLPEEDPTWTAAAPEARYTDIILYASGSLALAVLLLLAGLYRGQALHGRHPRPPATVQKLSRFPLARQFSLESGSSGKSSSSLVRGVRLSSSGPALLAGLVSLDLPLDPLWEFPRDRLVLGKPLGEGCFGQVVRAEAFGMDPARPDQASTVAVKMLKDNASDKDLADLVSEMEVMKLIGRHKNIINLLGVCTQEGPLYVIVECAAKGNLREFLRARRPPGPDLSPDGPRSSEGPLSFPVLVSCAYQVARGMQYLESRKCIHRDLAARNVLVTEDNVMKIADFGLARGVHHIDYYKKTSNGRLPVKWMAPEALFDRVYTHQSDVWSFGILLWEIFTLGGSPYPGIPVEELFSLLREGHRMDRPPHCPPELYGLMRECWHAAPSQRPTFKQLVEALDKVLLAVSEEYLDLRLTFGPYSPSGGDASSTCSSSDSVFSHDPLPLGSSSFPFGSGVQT
FGFR3 enzyme, sequence (P22607 23-806): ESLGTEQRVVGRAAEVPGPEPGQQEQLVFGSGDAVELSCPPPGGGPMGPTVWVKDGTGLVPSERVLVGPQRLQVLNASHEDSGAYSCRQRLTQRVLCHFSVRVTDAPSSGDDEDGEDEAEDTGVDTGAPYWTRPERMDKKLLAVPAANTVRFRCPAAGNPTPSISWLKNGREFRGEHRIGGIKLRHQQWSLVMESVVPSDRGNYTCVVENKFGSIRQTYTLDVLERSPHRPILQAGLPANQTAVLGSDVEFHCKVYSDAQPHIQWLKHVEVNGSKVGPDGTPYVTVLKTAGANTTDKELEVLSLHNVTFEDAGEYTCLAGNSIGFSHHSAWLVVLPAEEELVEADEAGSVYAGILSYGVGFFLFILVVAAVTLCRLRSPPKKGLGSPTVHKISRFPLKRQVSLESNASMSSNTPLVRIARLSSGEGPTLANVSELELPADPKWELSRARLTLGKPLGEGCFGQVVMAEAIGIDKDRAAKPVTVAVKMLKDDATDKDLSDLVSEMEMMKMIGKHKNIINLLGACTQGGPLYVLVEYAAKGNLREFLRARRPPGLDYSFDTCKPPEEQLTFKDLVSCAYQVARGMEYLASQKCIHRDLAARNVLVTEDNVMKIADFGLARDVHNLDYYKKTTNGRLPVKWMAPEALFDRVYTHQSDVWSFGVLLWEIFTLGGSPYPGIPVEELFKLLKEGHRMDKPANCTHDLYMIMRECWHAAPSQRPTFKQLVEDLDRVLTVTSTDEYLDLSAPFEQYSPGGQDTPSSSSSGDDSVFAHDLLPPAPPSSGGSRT

Usually IC50 stands for the concentration that inhibits the measured activity by half. Consider `COc1cc(OC)c(F)c(N2Cc3cnc(-c4cn(C)nc4C)cc3N(Cc3cnn(CC4CCCO4)c3)C2=O)c1F` (stereo not shown) [Example 127, 3-(2,6-difluoro-3,5-dimethoxyphenyl)-7-(1,3-dimethyl-1H-pyrazol-4-yl)-1-((1-((tetrahydrofuran-2-yl)methyl)-1H-pyrazol-4-yl)methyl)-3,4-dihydropyrido[4,3-d]pyrimidin-2(1H)-one], for which the IC50 lay within 0.01 to 0.03 µM against FGFR2 (setting [1]), 0.01 to 0.03 µM on FGFR3 enzyme (setting [1]), 0.03 to 0.2 µM against FGFR4 (setting [1]) and 30 to 200 nM at FGFR1 (setting [2]).

Consider `COc1cc(OC)c(F)c(N2Cc3cnc(-c4cn(C)nc4C)cc3N(c3ccnnc3)C2=O)c1F` [Example 57, 3-(2,6-difluoro-3,5-dimethoxyphenyl)-7-(1,3-dimethyl-1H-pyrazol-4-yl)-1-(pyridazin-4-yl)-3,4-dihydropyrido[4,3-d]pyrimidin-2(1H)-one], for which the IC50 at FGFR2 (setting [1]) was 0.03 to 0.2 µM; at FGFR2 (pre-incubated for 4 hours), 0.03 to 0.2 µM; on FGFR3 enzyme (setting [1]), 0.01 to 0.03 µM; at FGFR3 enzyme (pre-incubated for 4 hours), 0.01 to 0.03 µM; against FGFR4 (setting [1]) it was over 0.2 µM; against FGFR4 (pre-incubated for 4 hours), 0.03 to 0.2 µM. Also, the IC50 against FGFR1 (setting [2]) is 30 to 200 nM; on FGFR1 (setting [3]), over 200 nM. The “FGFR1/FGFR3 IC50 ratio” value on FGFR3 enzyme (pre-incubated for 4 hours) is over 10. In addition, the “FGFR4/FGFR3 IC50 ratio” value at FGFR3 enzyme (pre-incubated for 4 hours) is given as over 10.

On to `COc1cc(OC)c(F)c(N2Cc3cnc(-c4cn(C)nc4C)cc3N(Cc3csc(C)n3)C2=O)c1F` [Example 95, 3-(2,6-difluoro-3,5-dimethoxyphenyl)-7-(1,3-dimethyl-1H-pyrazol-4-yl)-1-((2-methylthiazol-4-yl)methyl)-3,4-dihydropyrido[4,3-d]pyrimidin-2(1H)-one], for which the IC50 against FGFR2 (pre-incubated for 4 hours) was under 0.01 µM; on FGFR3 enzyme (pre-incubated for 4 hours), under 0.01 µM; on FGFR4 (pre-incubated for 4 hours), 0.03 to 0.2 µM; at FGFR1 (setting [4]), 10 to 30 nM. In addition, the “FGFR1/FGFR3 IC50 ratio” value at FGFR3 enzyme (pre-incubated for 4 hours) is on record as over 5. Also, at FGFR3 enzyme (pre-incubated for 4 hours), the “FGFR4/FGFR3 IC50 ratio” value is on record as over 10.

With `COc1cc(OC)c(F)c(N2Cc3cnc(-c4cn(C)nc4C)cc3N(Cc3cnn(C)c3)C2=O)c1F` [Example 72, 3-(2,6-difluoro-3,5-dimethoxyphenyl)-7-(1,3-dimethyl-1H-pyrazol-4-yl)-1-((1-methyl-1H-pyrazol-4-yl)methyl)-3,4-dihydropyrido[4,3-d]pyrimidin-2(1H)-one], the IC50 on FGFR2 (pre-incubated for 4 hours) is under 0.01 µM; at FGFR3 enzyme (pre-incubated for 4 hours) it was under 0.01 µM; against FGFR4 (pre-incubated for 4 hours), under 0.01 µM; at FGFR1 (setting [3]), under 10 nM. The “FGFR1/FGFR3 IC50 ratio” value on FGFR3 enzyme (pre-incubated for 4 hours) is reported as over 5. On FGFR3 enzyme (pre-incubated for 4 hours), the “FGFR4/FGFR3 IC50 ratio” value is over 10.

As for `CCN1C(=O)N(c2c(F)c(OC)cc(OC)c2F)Cc2cnc(-c3cn(CC(=O)N4CCOCC4)nc3C)cc21` [Example 51, 3-(2,6-difluoro-3,5-dimethoxyphenyl)-1-ethyl-7-(3-methyl-1-(2-morpholino-2-oxoethyl)-1H-pyrazol-4-yl)-3,4-dihydropyrido[4,3-d]pyrimidin-2(1H)-one], the IC50 at FGFR2 (pre-incubated for 4 hours) was 0.03 to 0.2 µM; on FGFR3 enzyme (pre-incubated for 4 hours), 0.03 to 0.2 µM; against FGFR4 (pre-incubated for 4 hours), over 0.2 µM; at FGFR1 (setting [3]), over 200 nM. At FGFR3 enzyme (pre-incubated for 4 hours), the “FGFR1/FGFR3 IC50 ratio” value is over 1. Moreover, on FGFR3 enzyme (pre-incubated for 4 hours), the “FGFR4/FGFR3 IC50 ratio” value is given as over 1.

As to `COc1cc(OC)c(F)c(N2Cc3cnc(-c4cn(C)nc4C)cc3N(Cc3cnn(CC(F)F)c3)C2=O)c1F` [Example 128, 3-(2,6-difluoro-3,5-dimethoxyphenyl)-1-((1-(2,2-difluoroethyl)-1H-pyrazol-4-yl)methyl)-7-(1,3-dimethyl-1H-pyrazol-4-yl)-3,4-dihydropyrido[4,3-d]pyrimidin-2(1H)-one], the IC50 at FGFR2 (setting [1]) is under 0.01 µM; at FGFR3 enzyme (setting [1]) it was under 0.01 µM; against FGFR4 (setting [1]), 0.01 to 0.03 µM; on FGFR1 (read-out: FGFR1 IC50, pre-incubated for 5 to 10 minutes), under 10 nM.

Consider `COc1cc(OC)c(F)c(N2Cc3cnc(-c4cn(C)nc4C)cc3N(c3cc(F)cc(C#N)c3)C2=O)c1F` [Example 78, 3-(3-(2,6-difluoro-3,5-dimethoxyphenyl)-7-(1,3-dimethyl-1H-pyrazol-4-yl)-2-oxo-3,4-dihydropyrido[4,3-d]pyrimidin-1(2H)-yl)-5-fluorobenzonitrile], for which the IC50 is 0.01 to 0.03 µM at FGFR2 (pre-incubated for 4 hours), under 0.01 µM at FGFR3 enzyme (pre-incubated for 4 hours), 0.03 to 0.2 µM against FGFR4 (pre-incubated for 4 hours) and 30 to 200 nM against FGFR1 (setting [4]). For the same compound, at FGFR3 enzyme (pre-incubated for 4 hours), the “FGFR1/FGFR3 IC50 ratio” value is recorded as over 5. Also, the “FGFR4/FGFR3 IC50 ratio” value at FGFR3 enzyme (pre-incubated for 4 hours) was over 3.

For `COc1cc(OC)c(F)c(N2Cc3cnc(-c4cn(C)nc4C)cc3N(c3ccc4ccncc4c3)C2=O)c1F` [Example 63, 3-(2,6-difluoro-3,5-dimethoxyphenyl)-7-(1,3-dimethyl-1H-pyrazol-4-yl)-1-(isoquinolin-7-yl)-3,4-dihydropyrido[4,3-d]pyrimidin-2(1H)-one], the IC50 on FGFR2 (pre-incubated for 4 hours) was 0.01 to 0.03 µM; on FGFR3 enzyme (pre-incubated for 4 hours), under 0.01 µM; at FGFR4 (pre-incubated for 4 hours), 0.03 to 0.2 µM; against FGFR1 (setting [4]) it was 30 to 200 nM. For the same compound, the “FGFR1/FGFR3 IC50 ratio” value at FGFR3 enzyme (pre-incubated for 4 hours) is recorded as over 10. The “FGFR4/FGFR3 IC50 ratio” value on FGFR3 enzyme (pre-incubated for 4 hours) is given as over 5.

Regarding `COc1cc(OC)c(F)c(N2Cc3cnc(-c4cncc(N)c4)cc3C3(CC3)C2=O)c1F` [Example 4, 6′-(5-aminopyridin-3-yl)-2′-(2,6-difluoro-3,5-dimethoxyphenyl)-1′H-spiro[cyclopropane-1,4′-[2,7]naphthyridin]-3′(2′H)-one], the IC50 against FGFR2 (setting [1]) was 0.01 to 0.03 µM; at FGFR2 (pre-incubated for 4 hours), 0.03 to 0.2 µM; on FGFR3 enzyme (setting [1]) it was 0.01 to 0.03 µM; at FGFR3 enzyme (pre-incubated for 4 hours) it was 0.03 to 0.2 µM; against FGFR4 (setting [1]) it was under 0.01 µM; against FGFR4 (pre-incubated for 4 hours), under 0.01 µM. Further, the 50% inhibitory concentration (IC50) at FGFR1 (setting [2]) and on FGFR1 (setting [4]) was 30 to 200 nM each time. Further, the “FGFR1/FGFR3 IC50 ratio” value on FGFR3 enzyme (pre-incubated for 4 hours) is reported as over 1. The figures for the “FGFR1/FGFR4 IC50 ratio” value at FGFR4 (setting [1]) and at FGFR4 (pre-incubated for 4 hours) were over 10 and over 25, respectively. The “FGFR2/FGFR4 IC50 ratio” value on FGFR4 (setting [1]) and on FGFR4 (pre-incubated for 4 hours) was over 10 in each case. Moreover, the “FGFR3/FGFR4 IC50 ratio” value at FGFR4 (setting [1]) is recorded as over 5; at FGFR4 (pre-incubated for 4 hours) it was over 10.

As to `CCN1C(=O)N(c2c(F)c(OC)cc(OC)c2F)Cc2cnc(-c3ccc(CC#N)cc3)cc21` [Example 180, 2-(4-(3-(2,6-difluoro-3,5-dimethoxyphenyl)-1-ethyl-2-oxo-1,2,3,4-tetrahydropyrido[4,3-d]pyrimidin-7-yl)phenyl)acetonitrile], the IC50 on FGFR2 (pre-incubated for 4 hours) was under 0.01 µM; on FGFR3 enzyme (pre-incubated for 4 hours), under 0.01 µM; against FGFR4 (pre-incubated for 4 hours) it was 0.01 to 0.03 µM; against FGFR1 (setting [4]), 30 to 200 nM. Also, the “FGFR1/FGFR3 IC50 ratio” value on FGFR3 enzyme (pre-incubated for 4 hours) was over 5. The “FGFR4/FGFR3 IC50 ratio” value at FGFR3 enzyme (pre-incubated for 4 hours) is reported as over 5.

For `COc1cc(OC)c(F)c(N2Cc3cnc(-c4cn(C5CCN(C)C5)nc4C)cc3C3(CC3)C2=O)c1F` (stereo not shown) [Example 163, 2′-(2,6-difluoro-3,5-dimethoxyphenyl)-6′-(3-methyl-1-(1-methylpyrrolidin-3-yl)-1H-pyrazol-4-yl)-1′H-spiro[cyclopropane-1,4′-[2,7]naphthyridin]-3′(2′H)-one], the IC50 against FGFR2 (pre-incubated for 4 hours) is under 0.01 µM; on FGFR3 enzyme (pre-incubated for 4 hours), under 0.01 µM; at FGFR4 (pre-incubated for 4 hours), 0.03 to 0.2 µM; at FGFR1 (setting [4]) it was 30 to 200 nM. Further, the “FGFR1/FGFR3 IC50 ratio” value at FGFR3 enzyme (pre-incubated for 4 hours) was over 3. The “FGFR4/FGFR3 IC50 ratio” value on FGFR3 enzyme (pre-incubated for 4 hours) is over 3.

At FGFR2 (pre-incubated for 4 hours), `COc1cc(OC)c(F)c(N2Cc3cnc(-c4nn(CC#N)cc4C#N)cc3C3(CC3)C2=O)c1F` [Example 174, 1-(cyanomethyl)-3-(2′-(2,6-difluoro-3,5-dimethoxyphenyl)-3′-oxo-2′,3′-dihydro-1′H-spiro[cyclopropane-1,4′-[2,7]naphthyridine]-6′-yl)-1H-pyrazole-4-carbonitrile] came in with an IC50 of over 0.2 µM. Moreover, at FGFR3 enzyme (pre-incubated for 4 hours), the IC50 was over 0.2 µM. At FGFR4 (pre-incubated for 4 hours), the “FGFR1/FGFR4 IC50 ratio” value was over 100, the “FGFR2/FGFR4 IC50 ratio” value was over 10, the “FGFR3/FGFR4 IC50 ratio” value is over 25 and the IC50 was in the range of 0.01 to 0.03 µM. Also, the IC50 at FGFR1 (setting [3]) was over 200 nM.

Regarding `COc1cc(OC)c(F)c(N2Cc3cnc(-c4cn(C)nc4C)cc3N(c3ncccn3)C2=O)c1F` [Example 105, 3-(2,6-difluoro-3,5-dimethoxyphenyl)-7-(1,3-dimethyl-1H-pyrazol-4-yl)-1-(pyrimidin-2-yl)-3,4-dihydropyrido[4,3-d]pyrimidin-2(1H)-one], the IC50 fell in the range of 0.01 to 0.03 µM against FGFR2 (pre-incubated for 4 hours), 0.01 to 0.03 µM on FGFR3 enzyme (pre-incubated for 4 hours), 0.03 to 0.2 µM against FGFR4 (pre-incubated for 4 hours) and 30 to 200 nM at FGFR1 (setting [4]). Also, the “FGFR1/FGFR3 IC50 ratio” value on FGFR3 enzyme (pre-incubated for 4 hours) is on record as over 3. The “FGFR4/FGFR3 IC50 ratio” value at FGFR3 enzyme (pre-incubated for 4 hours) was over 5.

In the case of `CNC(=O)c1ccc(-c2cc3c(cn2)CN(c2c(F)c(OC)cc(OC)c2F)C(=O)C32CC2)cc1` [Example 19, 4-(2′-(2,6-difluoro-3,5-dimethoxyphenyl)-3′-oxo-2′,3′-dihydro-1′H-spiro[cyclopropane-1,4′-[2,7]naphthyridine]-6′-yl)-N-methylbenzamide], the concentration for half-maximal inhibition (IC50) on FGFR2 (pre-incubated for 4 hours) was under 0.01 µM; on FGFR3 enzyme (pre-incubated for 4 hours), under 0.01 µM; on FGFR4 (pre-incubated for 4 hours), under 0.01 µM; against FGFR1 (setting [4]), 10 to 30 nM. Moreover, the “FGFR1/FGFR3 IC50 ratio” value on FGFR3 enzyme (pre-incubated for 4 hours) was over 5.

Turning to `COc1cc(OC)c(F)c(N2Cc3cnc(-c4cn(C)nc4C)cc3N(Cc3ccnc(C)n3)C2=O)c1F` [Example 121, 3-(2,6-difluoro-3,5-dimethoxyphenyl)-7-(1,3-dimethyl-1H-pyrazol-4-yl)-1-((2-methylpyrimidin-4-yl)methyl)-3,4-dihydropyrido[4,3-d]pyrimidin-2(1H)-one], the IC50 on FGFR2 (setting [1]) is under 0.01 µM; at FGFR3 enzyme (setting [1]), under 0.01 µM; at FGFR4 (setting [1]), 0.03 to 0.2 µM; against FGFR1 (setting [2]), 10 to 30 nM.
